Source: US20210355450A1, “CERVICAL CANCER ORGANOIDS” (Max-Planck-Gesellschaft zur Förderung der Wissenschaften …, priority 2018, published 2021)
“Also recorded” adds a separate entry of the source.

Key:
[1] = system: human ectocervical organoids; test: Human ectocervical organoid culture: formation, growth, differentiation; type: cell-based; conditions: for formation and expansion of squamous stratified organoids from single ectocervical stem cells: Wnt3a and RSPO1 together present in culture medium, human
Procedure: The medium consisted of ADF, 12 mM HEPES and 1% GlutaMax, supplemented with 1% B27, 1% N2, 0.5 μg/ml hydrocortisone (Sigma, #H0888-1G), 10 ng/ml human EGF (Invitrogen, #PHG0311), 100 ng/ml human noggin (Peprotech; #120-10C), 100 ng/ml human FGF-10 (Peprotech, #100-26-25), 1.25 mM N-acetyl-L-cysteine, 10 mM nicotinamide, 2 μM TGF-β R kinase Inhibitor IV, 10 μM ROCK inhibitor (Y-27632), 10 μM forskolin (Sigma, F6886) and 1% penicillin/streptomycin.
(§1) Cells isolated from tissue or the stem cells grown in 2D culture were mixed with 50 μl of ice cold Matrigel (BD, #356231) at a density of 20,000 cells, and the Matrigel droplet was placed in a pre-warmed 24-well plate and allowed to polymerize for 10 min at 37° C. The Matrigel droplet was then overlaid with 500 μl of pre-warmed human ecto- or endocervical medium. Cultures were kept at 37° C., 5% CO2 in a humidified incubator for 2-3 weeks and medium replaced every four days. For passaging the organoids, Matrigel was first dissolved by adding 1 ml of ice cold ADF and pipetting up and down 5 times. Organoids were collected in a 15 ml Falcon tube and a further 4 ml of ice cold ADF medium was added and organoids resuspended well to completely dissolve the Matrigel, followed by centrifugation at 300×g for 5 mins at 4° C. Medium was discarded and the ectocervical and mouse organoids were incubated with 1 ml of TrypLE Express for 30 min at 37° C. followed by mechanical fragmentation using a fire-polished glass Pasteur pipette by vigorous pipetting (8-10 times) to generate single cells. The single cells were then seeded at a 1:10 ratio back into Matrigel for expanding and culturing. Endocervical organoids were subjected to mechanical fragmentation as described above after centrifugation to generate fragments that were seeded back into Matrigel at 1:5 ratio. Matrigel was allowed to polymerize for 10 min at 37° C., overlaid with pre-warmed medium and cultured as described above.
(§2) Stem cells were counted and a defined number resuspended in 50 μl of Matrigel to generate organoids as described above. Between 2-3 weeks after plating images were taken of the whole well and the number and area of organoids formed were determined using ImageJ to calculate organoid forming efficiency.
Organoids were washed with cold PBS five times to remove Matrigel before fixing with 4% paraformaldehyde for 1 h at room temperature (RT) followed by washing with PBS twice. Organoids were then subjected to dehydration in an ascending ethanol series followed by isopropanol and acetone for 20 min each. The dehydrated organoids were paraffin embedded and 5 μm sections cut on a Microm HM 315 microtome. Mouse and human tissues were extensively washed with PBS and fixed using 4% PFA overnight at RT. Samples were subjected to dehydration in an ascending ethanol series followed by isopropanol and xylene (60 mins each) followed by paraffinization using a Leica TP1020 tissue processor. The tissue was embedded and 5 μm sections cut on a microtome. For immunostaining, paraffin sections were deparaffinized and rehydrated, followed by treatment with antigen retrieval solution (Dako, #S1699). Sections were blocked using blocking buffer (1% BSA and 2% FCS in PBS) for 1 h at RT. Primary antibodies were diluted in blocking buffer and incubated for 90 min at RT followed by five PSB washes before 1 h incubation with secondary antibodies diluted in blocking buffer along with Hoechst or Draq5. Sections were washed with PBS five times and mounted using Mowiol. […]

[2] = system: mouse ectocervical organoids; test: Mouse ectocervical organoid culture: formation and expansion; type: cell-based; conditions: for formation and expansion of squamous stratified organoids from single ectocervical stem cells: Wnt3a and RSPO1 together present in culture medium, mouse; for effect of presence or absence of Wnt pathway activators on murine organoid culture: murine ectocervical organoid medium
Procedure: Cervical cells were cultured in ADF medium (Invitrogen, #12634) supplemented with 12 mM HEPES (Invitrogen, #15630-056), 1% GlutaMax (Invitrogen, #35050-038), 1% B27 (Invitrogen, #17504-044), 1% N2 (Invitrogen, #17502048), 50 ng/ml mouse epidermal growth factor (EGF) (Invitrogen, #PMG8043), 100 ng/ml mouse noggin (Peprotech, #250-38-100), 100 ng/ml human fibroblast growth factor (FGF)-10 (Peprotech, #100-26-25), 1.25 mM N-acetyl-L-cysteine (Sigma, #A9165-5G), 10 mM nicotinamide, (Sigma, #N0636), 2 μM TGF-β R Kinase Inhibitor IV (Calbiochem, #616454), 10 μM ROCK inhibitor (Y-27632) (Sigma, #Y0503), 1% penicillin/streptomycin (Gibco, #15140-122) with or without 25% Wnt3A- and 25% R-spondin1-conditioned medium, as described in Willert et al (46) and Farin et al (47).
as §1, §2

Molecule | organoid growth (area of organoids) ([1]; grown in presence of γ-secretase inhibitor (Notch inhibition), FIG. 3H, 11D) | proliferation of organoids (Ki67) ([1]; presence of γ-secretase inhibitor, FIG. 3I) | differentiation and stratification of organoids ([1]; presence of γ-secretase inhibitor, immunolabelling CDH1, Ki67, p63, FIG. 3I) | formation and expansion of squamous stratified organoids from single ectocervical stem cells [2] | effect of presence or absence of Wnt pathway activators on murine organoid culture [2] | formation and expansion of squamous stratified organoids from single ectocervical stem cells [1]
C[C@H](NC(=O)Cc1cc(F)cc(F)c1)C(=O)N[C@@H]1C(=O)N(C)c2ccccc2-c2ccccc21 [DBZ] | reduced organoid growth | reduces proliferation | failed to differentiate and stratify; also recorded: prevents differentiation |  |  | 
Wnt3a |  |  |  | detrimental | not to substantially effect | detrimental
RSPO1: Wnt agonist R-spondin 1, supplied as 25% conditioned medium (protein, UniProt Q2MKA7 21-263, looked up, conditioned medium, Wnt agonist R-spondin 1, supplied as 25% conditioned medium) R-spondin-1: SRGIKGKRQRRISAEGSQACAKGCELCSEVNGCLKCSPKLFILLERNDIRQVGVCLPSCPPGYFDARNPDMNKCIKCKIEHCEACFSHNFCTKCKEGLYLHKGRCYPACPEGSSAANGTMECSSPAQCEMSEWSPWGPCSKKQQLCGFRRGSEERTRRVLHAPVGDHAACSDTKETRRCTVRRVPCPEGQKRRKGGQGRRENANRNLARKESKEAGAGSRRRKGQQQQQQQGTVGPLTSAGPA |  |  |  | detrimental | not to substantially effect | detrimental
